Counter-ions that a name gives are not always drawn.
Tests used:
[1] = LD50 in rats (acute toxicity); conditions: rat, in vivo
Source text: Accordingly, it can be advantageously used for the treatment of hemorrhoidal diseases.

rectal mucosa = assay: Rectal mucosa irritating action; type: in vivo, Male Wistar rats; conditions: intrarectal, 5 h; for Irritation potency, Index value: mean ± standard error (n = 6); for Irritation potency, Central value: score 0-4 of Table 1
Protocol: Rectal Mucosa Irritating Action of Compound (I)
The rectal mucosa irritating action of Compound (I) was examined as in the following.
1. Animals used: Male Wistar rats weighing 135-200 g
2. Test substance: EPC-K added to an oil-in-water type cream
The rats were fasted for 48 hours and the test substance was intrarectally administered. Five hours later, the rats were exsanguinated to death. The rectum was removed and the mucosa was visually observed. The condition of the mucosa was expressed in numerical units according to the evaluation standard shown in Table 1, and a central value and an average value were calculated, based on which the irritation by the test substance was classified according to the evaluation standard for irritation shown in Table 2.

rectal tissues = assay: Wound healing accelerating effect on rectal tissues (hydroxyproline content); type: in vivo, Male Wistar rats; conditions: 1% EPC-K, average (n=5)
Protocol: Wound Healing Accelerating Effect of Compound (I) on Rectal Tissues
The wound healing accelerating effect of Compound (I) on rectal tissues was examined using the amount of hydroxyproline (Hyp) in tissue as an index.
1. Animals used: Male Wistar rats weighing 150-250 g
2. Test substance: EPC-K added to an oil-in-water cream to 1 w/w %
The rats were fasted for 24 hours and a narrow saw was inserted in the rectum. A wound was made by two reciprocations of the saw in the rectum. The test substance was injected in the rectum once a day by 100 μl beginning immediately after forming of the wound. The rats were exsanguinated to death at 4 hours, 1, 3, 6 or 9 days thereafter and the rectum was removed. The removed rectum was delipidized, shredded and dried. After acid hydrolysis, pH was adjusted and hydroxyproline content was measured by the chloramine T oxidation method.

[2] = tested on: recto-anal edema induced by a croton oil mixture; assay: Suppressive effect on recto-anal edema induced by croton oil mixture; type: in vivo, Male Wistar rats; conditions: 4% EPC-K in petrolatum, 24 h, * p < 0.05 vs control
Protocol: Effects of Compound (I) on Models with Hemorrhoidal Disease Induced by Croton Oil Mixture
The suppressive effect of Compound (I) on recto-anal edema induced by a croton oil mixture was examined.
1. Animals used: Male Wistar rats weighing 140-250 g
2. Test substance: EPC-K added to petrolatum base material to 4 w/w %
Composition: distilled water:pyridine:diethyl ether:6% croton oil in diethyl ether solution=1:4:5:10
Preparation: Water and a small amount of diethyl ether were added to pyridine and mixed. Then, a 6% croton oil diethyl ether solution was added and the remaining diethyl ether was added thereto. The mixture was vigorously shaken.
A stype of a swab was impregnated with the croton oil mixture (160 μl) and the entire stype was inserted into the rectum for 10 seconds.
5. Determination of edema
The test substance was administered intrarectally immediately after the induction of inflammation, and the anus was sealed for 4 hours with a clip so as to prevent leaking out of the substance.
At 24 hours after the induction of inflammation, the rats were exsanguinated to death and the weight of the recto-anal part, cut out in 15 mm length from 5 mm from the circular hairline on annal epithelium, was measured. The recto-anal coefficient (RAC=Wra·Wb^-1 ·10^3) was calculated on the basis of the weight of the recto-anal part (Wra) and body weight (Wb) and used as an index of inflammation.

[3] = 0.2% EPC-K in oil-in-water cream

## Cc1c(C)c2c(c(C)c1OP(=O)(O)OC1=C(O)[C@@H]([C@@H](O)CO)OC1=O)CCC(C)(CCCC(C)CCCC(C)CCCC(C)C)O2 (mixture of isomers) [EPC-K, L-ascorbic acid DL-α-tocopheryl phosphate diester potassium salt]
[1]; intravenous injection to rats
  LD50: ≥ 100 mg/kg
[1]; oral administration to rats
  LD50: ≥ 5000 mg/kg
Rectal mucosa; [3]
  Irritation potency, Index value: 0.67 ± 0.42
  Irritation potency, Central value: 0
Rectal mucosa; 1% EPC-K in oil-in-water cream
  Irritation potency, Index value: 0.50 ± 0.34
  Irritation potency, Central value: 0
Rectal mucosa; 5% EPC-K in oil-in-water cream
  Irritation potency, Index value: 0.83 ± 0.54
  Irritation potency, Central value: 0
Rectal tissues; 4 hr later, control 19.67, normal rectum 22.26
  Hydroxyproline content in rectal tissues: 19.38 µg/mg
Rectal tissues; 1 day later, control 19.69, normal rectum 22.26
  Hydroxyproline content in rectal tissues: 21.70 µg/mg
Rectal tissues; 3 days later, control 23.46, normal rectum 22.26
  Hydroxyproline content in rectal tissues: 24.75 µg/mg
Rectal tissues; 6 days later, control 25.63, normal rectum 22.26
  Hydroxyproline content in rectal tissues: 25.22 µg/mg
Rectal tissues; 9 days later, control 27.38, normal rectum 22.26
  Hydroxyproline content in rectal tissues: 26.53 µg/mg
[2]
  Edema suppression: 19.5%
[2]; mean ± standard error (n = 10), control 2.36, untreated 0.67
  Recto-anal coefficient (RAC): 2.03 ± 0.07
